According to the NIST ThermoML archive (doi:10.1021/je0602925):
± gives the expanded uncertainty stated by the source.

Test: activity coefficient (dimensionless); of the first substance listed, at infinite dilution; xn = mol fraction of the nth substance listed
Conditions: Liquid, Chromatography, x1 = 0

Compound `C#CCCCC` [1-hexyne] + CCCCCCCCCCCCCC[P+](CCCCCC)(CCCCCC)CCCCCC.O=S(=O)([N-]S(=O)(=O)C(F)(F)F)C(F)(F)F has an activity coefficient (308.15 K) of 0.454 ± 0.036, an activity coefficient (318.15 K) of 0.463 ± 0.036 and an activity coefficient (328.15 K) of 0.468 ± 0.037.
